Measurements reported in patent publication US20190084939A1, “ANALOGS OF FEXARAMINE AND METHODS OF MAKING AND USING” (Salk Institute for Biological Studies, priority 2014, published 2019).
Where two headings read alike, the source gives them in different places.

Target: T1, Human FXR full length (Homo sapiens, UniProt Q96RI1)
T1 construct: Human FXR full length and RXR full length was obtained from Ronald Evans' laboratory; expressed in transfected cells; host or cells: CV-1 cells
T1 sequence (Q96RI1 1-476 isoform Q96RI1-1): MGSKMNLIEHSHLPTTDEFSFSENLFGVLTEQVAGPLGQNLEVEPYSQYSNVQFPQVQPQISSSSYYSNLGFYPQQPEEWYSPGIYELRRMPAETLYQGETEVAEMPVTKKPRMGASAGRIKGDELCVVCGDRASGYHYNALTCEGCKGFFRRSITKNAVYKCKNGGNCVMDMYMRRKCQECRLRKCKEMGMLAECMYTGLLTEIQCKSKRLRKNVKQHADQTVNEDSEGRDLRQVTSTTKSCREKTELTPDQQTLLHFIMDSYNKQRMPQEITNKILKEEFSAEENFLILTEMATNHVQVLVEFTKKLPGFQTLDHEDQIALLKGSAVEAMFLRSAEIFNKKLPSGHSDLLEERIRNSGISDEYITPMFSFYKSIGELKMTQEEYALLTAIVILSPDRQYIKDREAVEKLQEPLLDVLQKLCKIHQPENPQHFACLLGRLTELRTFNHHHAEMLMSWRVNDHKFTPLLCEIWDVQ
T1 sequence (P19793 1-462 partner): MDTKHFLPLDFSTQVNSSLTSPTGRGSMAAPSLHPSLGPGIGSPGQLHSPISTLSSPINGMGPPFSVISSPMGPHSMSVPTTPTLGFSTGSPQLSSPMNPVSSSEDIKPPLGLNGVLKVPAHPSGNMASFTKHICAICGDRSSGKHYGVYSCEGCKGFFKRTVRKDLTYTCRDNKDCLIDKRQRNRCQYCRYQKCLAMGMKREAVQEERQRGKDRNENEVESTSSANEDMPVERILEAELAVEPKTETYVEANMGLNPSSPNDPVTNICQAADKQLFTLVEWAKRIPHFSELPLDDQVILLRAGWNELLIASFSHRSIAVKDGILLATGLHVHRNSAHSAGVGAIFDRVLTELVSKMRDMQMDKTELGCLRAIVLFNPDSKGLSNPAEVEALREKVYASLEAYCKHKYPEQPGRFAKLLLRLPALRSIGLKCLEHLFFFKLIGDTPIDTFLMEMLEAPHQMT
Experiment: FXR activity screen, luciferase reporter in transfected CV-1 cells
Format: cell-based
Description: CV-1 cells were grown in DMEM+10% charcoal stripped FCS. Cells were seeded into 384-well plates the day before transfection to give a confluency of 50-80% at transfection. A total of […] DNA containing 0.32 micrograms pCMX-hFXRfl, 0.32 micrograms pCMX-hRXRfl, 0.1 micrograms pCMXβGal, 0.08 micrograms pGLFXRE reporter and 0.02 micrograms pCMX empty vector was transfected per well using FuGene transfection reagent according to the manufacturer's instructions (Roche). Cells were allowed to express protein for 48 hours followed by addition of compound.
Human FXR full length and RXR full length was obtained from Ronald Evans' laboratory and PCR amplification of the hFXR cDNA and the hRXR cDNA was performed. The amplified cDNAs was cloned into the vector pCMX generating the plasmids pCMX-hFXRfl and pCMX-hRXRfl. Ensuing fusions were verified by sequencing. The pCMXMH2004 luciferase reporter contains multiple copies of the GAL4 DNA response element under a minimal eukaryotic promoter (Hollenberg and Evans, 1988). pCMXβGal was generated in the Evans laboratory, Salk Institute.
All compounds were dissolved in DMSO and diluted 1:1000 upon addition to the cells. Compounds were tested in quadruple in concentrations ranging from 0.001 to 100 μM. Cells were treated with compound for 24 hours followed by luciferase assay. Each compound was tested in at least two separate experiments.
Medium including test compound was aspirated and washed with PBS. 50 μL PBS including 1 mM Mg^2+ and Ca^2+ were then added to each well. The luciferase assay was performed using the LucLite kit according to the manufacturer's instructions (Packard Instruments). Light emission was quantified by counting on a Perkin Elmer Envision reader. To measure […] activity 25 μL supernatant from each transfection lysate was transferred to a new 384 microplate. Beta-galactosidase assays were performed in the microwell plates using a kit from Promega and read in a Perkin Elmer Envision reader. The beta-galactosidase data were used to normalize (transfection efficiency, cell growth etc.) the luciferase data.
The activity of a compound is calculated as fold induction compared to an untreated sample. For each compound the efficacy (maximal activity) is given as a relative activity compared to Fexaramine, a FXR agonist. The EC50 is the concentration giving 50% of maximal observed activity. EC50 values were calculated via non-linear regression using GraphPad PRISM (GraphPad Software, San Diego, Calif.).

[1] = first round, CV-1 cells, 24 hours, read-out: 1st RND EC50
[2] = second round, CV-1 cells, 24 hours, read-out: 2nd RND EC50

SMILES | EC50 [1] | EC50 [2] | EC50 (retest, read-out: EC50 (retested))
[2H]C(c1ccc(-c2ccc(N(C)C)cc2)cc1)N(C(=O)c1ccccc1)c1cccc(/C=C/C(=O)OC)c1 (centres unmarked) [NSSK00048] | 382 nM | 357 nM | –
[2H]C(c1ccc(-c2ccc3c(cnn3C)c2)cc1)N(C(=O)c1ccccc1)c1cccc(/C=C/C(=O)OC)c1 (centres unmarked) [NSSK00049] | 2800 nM | 3500 nM | –
[2H]C(c1ccc(-c2ccc(N(C)C)cc2)cc1Cl)N(C(=O)c1ccccc1)c1cc(F)cc(/C=C/C(=O)OC)c1 (centres unmarked) [NSSK00050] | 1700 nM | 2100 nM | –
[2H]C(c1ccc(-c2ccc3c(cnn3C)c2)cc1)N(C(=O)c1ccccc1)c1cc(F)cc(/C=C/C(=O)OC)c1 (centres unmarked) [NSSK00051] | 1100 nM | 5000 nM | –
COC(=O)/C=C/c1cccc(N(Cc2ccc(-c3ccc(N(C)C)cc3)cc2Cl)C(=O)[C@@H]2C[C@@H]3CC[C@H]2C3)c1 [NSSK00052] | 697 nM | 697 nM | –
COC(=O)/C=C/c1cccc(N(Cc2ccc(-c3ccc(N(C)C)cc3)cc2)C(=O)c2ccccc2)c1 [NSSK00053] | 529 nM | 539 nM | –
COC(=O)/C=C/c1cccc(N(Cc2ccc(-c3ccc(N(C)C)cc3)cc2F)C(=O)c2ccccc2)c1 [NSSK00054] | 509 nM | 457 nM | –
COC(=O)/C=C/c1cccc(N(Cc2ccc(-c3ccc(N(C)C)cc3)cc2Cl)C(=O)c2ccccc2)c1 [NSSK00055] | 931 nM | 1400 nM | –
COC(=O)/C=C/c1cccc(N(Cc2ccc(-c3ccc4c(cnn4C)c3)cc2)C(=O)c2ccccc2)c1 [NSSK00056] | 752 nM | 720 nM | –
COC(=O)/C=C/c1cccc(N(Cc2ccc(-c3ccc4c(cnn4C)c3)cc2F)C(=O)c2ccccc2)c1 [NSSK00057] | 606 nM | 795 nM | –
COC(=O)/C=C/c1cc(F)cc(N(Cc2ccc(-c3ccc4c(cnn4C)c3)cc2)C(=O)c2ccccc2)c1 [NSSK00058] | 1200 nM | 1500 nM | –
COC(=O)/C=C/c1cncc(N(Cc2ccc(-c3ccc(N(C)C)cc3)cc2)C(=O)[C@@H]2C[C@@H]3CC[C@H]2C3)c1 [NSSK00059] | 1570 nM | 1300 nM | –
COC(=O)/C=C/c1cncc(N(Cc2ccc(-c3ccc(N(C)C)cc3)cc2)C(=O)c2ccccc2)c1 [NSSK00060] | 8500 nM | 11200 nM | –
COC(=O)/C=C/c1cncc(N(Cc2ccc(-c3ccc4c(cnn4C)c3)cc2F)C(=O)c2ccccc2)c1 [NSSK00061] | 9600 nM | 10200 nM | –
[2H]C(c1ccc(-c2ccc(N(C)C)cc2)cc1)N(C(=O)C1CCCCC1)c1cncc(/C=C/C(=O)OC)c1 (centres unmarked) [NSSK00062] | 926 nM | 926 nM | –
[2H]C(c1ccc(-c2ccc(N(C)C)cc2)cc1)N(C(=O)c1ccccc1)c1cncc(/C=C/C(=O)OC)c1 (centres unmarked) [NSSK00063] | 3000 nM | 1900 nM | –
[2H]C(c1ccc(-c2ccc(N(C)C)cc2)cc1Cl)N(C(=O)[C@@H]1C[C@@H]2CC[C@H]1C2)c1cncc(/C=C/C(=O)OC)c1 (some centres unmarked) [NSSK00064] | 4600 nM | 3300 nM | –
[2H]C(c1ccc(-c2ccc(N(C)C)cc2)cc1Cl)N(C(=O)c1ccccc1)c1cncc(/C=C/C(=O)OC)c1 (centres unmarked) [NSSK00065] | 3300 nM | 6000 nM | –
[2H]C(c1ccc(-c2ccc3c(cnn3C)c2)cc1F)N(C(=O)[C@@H]1C[C@@H]2CC[C@H]1C2)c1cncc(/C=C/C(=O)OC)c1 (some centres unmarked) [NSSK00066] | 5400 nM | 8500 nM | –

SMILES | EC50 [1] | EC50 [2] | EC50 (retest, read-out: EC50 (retested))
[2H]C(c1ccc(-c2ccc3c(cnn3C)c2)cc1F)N(C(=O)c1ccccc1)c1cncc(/C=C/C(=O)OC)c1 (centres unmarked) [NSSK00067] | 0.4 nM | 0.2 nM | –
COC(=O)/C=C/c1cc(F)cc(N(Cc2ccc(-c3ccc(N(C)C)cc3)cc2)C(=O)c2ccccc2)c1 [NSSK00068] | 5700 nM | 7400 nM | –
[2H]C(c1ccc(-c2ccc3c(cnn3C)c2)cc1F)N(C(=O)[C@@H]1C[C@@H]2CC[C@H]1C2)c1cccc(/C=C/C(=O)OC)c1 (some centres unmarked) [NSSK00070] | 1700 nM | 1700 nM | –
[2H]C(c1ccc(-c2ccc(N(C)C)cc2)cc1Cl)N(C(=O)C1CCCCC1)c1cc(F)cc(/C=C/C(=O)OC)c1 (centres unmarked) [NSSK00072] | 1100 nM | 2200 nM | –
[2H]C(c1ccc(-c2ccc3c(cnn3C)c2)cc1Cl)N(C(=O)[C@@H]1C[C@@H]2CC[C@H]1C2)c1cncc(/C=C/C(=O)OC)c1 (some centres unmarked) [NSSK00073] | 119 nM | 146 nM | –
COC(=O)/C=C/c1cccc(N(Cc2ccc(-c3ccc4c(cnn4C)c3)cc2Cl)C(=O)C2CCN(C)CC2)c1 [NSSK00075] | 155000 nM | 653000 nM | –
COC(=O)/C=C/c1cncc(N(Cc2ccc(-c3ccc(N(C)C)cc3)cc2F)C(=O)C2CCCCC2)c1 [NSSK00078] | 698 nM | 673 nM | –
[2H]C(c1ccc(-c2ccc(N(C)C)cc2)cc1F)N(C(=O)c1ccccc1)c1cccc(/C=C/C(=O)OC)c1 (centres unmarked) [NSSK00079] | 513 nM | 605 nM | –
COC(=O)/C=C/c1cccc(N(Cc2ccc(-c3ccc(N(C)C)cc3)cc2Cl)C(=O)C2CCCCC2)c1 [NSSK00080] | 623 nM | 610 nM | –
COC(=O)/C=C/c1cncc(N(Cc2ccc(-c3ccc(N(C)C)cc3)cc2Cl)C(=O)c2ccccc2)c1 [NSSK00081] | 22800 nM | 71000 nM | –
COC(=O)/C=C/c1cncc(N(Cc2ccc(-c3ccc(N(C)C)cc3)cc2Cl)C(=O)[C@@H]2C[C@@H]3CC[C@H]2C3)c1 [NSSK00082] | 5100 nM | 6100 nM | –
COC(=O)/C=C/c1cc(F)cc(N(Cc2ccc(-c3ccc4c(cnn4C)c3)cc2)C(=O)C2CCCCC2)c1 [NSSK00084] | 3600 nM | 4700 nM | –
[2H]C(c1ccc(-c2ccc3c(cnn3C)c2)cc1)N(C(=O)[C@@H]1C[C@@H]2CC[C@H]1C2)c1cccc(/C=C/C(=O)OC)c1 (some centres unmarked) [NSSK00086] | 371 nM | 1600 nM | –
[2H]C(c1ccc(-c2ccc3c(cnn3C)c2)cc1F)N(C(=O)C1CCCCC1)c1cccc(/C=C/C(=O)OC)c1 (centres unmarked) [NSSK00089, methyl (E)-3-(3-(N-((2-fluoro-4-(1-methyl-1H-indazol-5-yl)phenyl)methyl-d)cyclohexanecarboxamido)phenyl)acrylate] | 383 nM | 406 nM | 366 nM
COC(=O)/C=C/c1cccc(N(Cc2ccc(-c3ccc4c(cnn4C)c3)cc2Cl)C(=O)C2CCCCC2)c1 [NSSK00091] | 801 nM | 628 nM | –
COC(=O)/C=C/c1cncc(N(Cc2ccc(-c3ccc4c(cnn4C)c3)cc2Cl)C(=O)c2ccccc2)c1 [NSSK00092] | 3400 nM | 5500 nM | –
[2H]C(c1ccc(-c2ccc3c(cnn3C)c2)cc1F)N(C(=O)c1ccccc1)c1cccc(/C=C/C(=O)OC)c1 (centres unmarked) [NSSK00093] | 459 nM | 511 nM | –
[2H]C(c1ccc(-c2ccc3c(cnn3C)c2)cc1Cl)N(C(=O)[C@@H]1C[C@@H]2CC[C@H]1C2)c1cc(F)cc(/C=C/C(=O)OC)c1 (some centres unmarked) [NSSK00094] | 786 nM | 865 nM | –
[2H]C(c1ccc(-c2ccc3c(cnn3C)c2)cc1Cl)N(C(=O)C1CCCCC1)c1cncc(/C=C/C(=O)OC)c1 (centres unmarked) [NSSK00095] | 1400 nM | 1500 nM | –
